Test results: patent US20240287029A1, “SULFONAMIDES, METHOD FOR PREPARATION THEREOF, AND USE THEREOF” (CHENGDU SHIBEIKANG BIOMEDICAL TECHNOLOGY CO., LTD., priority 2021, published 2024)
pIC50: −log10 of the molar value. Marks after values point to notes of the source that are not given here.

How the values were obtained:
[1] = tested on: ammonia-induced coughs in mice; experiment: Mouse coughing test (concentrated ammonia induced cough); type: in vivo; conditions: KM mice, 30 mg/kg intragastric; for duration of cough-relieving action compared to Comparative Compound 1: 60 and 120 min; for Number of coughs: 30 min after administration; for Number of coughs / Number of coughs 60 min / Number of coughs 120 min: coughs within 3 min, group mean; for Number of coughs 60 min: 60 min after administration; for Number of coughs 120 min: 120 min after administration
Source text: Healthy adult KM mice, half male and half female, 6 mice in each group, each weighing about 28-30 g.
Most of the animal coughing models reported in the literature use mechanical, chemical and electrical stimulation to stimulate the animal's nerves and receptors to trigger coughing. Based on the characteristics of the candidate compounds and the existing similar target compounds as a reference, the concentrated ammonia induction method was preliminarily selected to establish a coughing model in mice.
Preparation of 50% aqueous ammonia solution: 2.5 ml aqueous ammonia was dissolved in a 5 ml injection solution of 0.9% sodium chloride, and mixed well.
Preparation of solutions of the positive control and Comparative Compound 1: each of 9 mg positive control and 9 mg Comparative Compound 1 was weighed and dissolved in a 3 ml solution of 0.5% CMC-Na, and fully mixed, to obtain a 3 mg/ml solution.
Preparation of solutions of the compounds of Examples: 9 mg of the compound of each Example was dissolved in a 3 ml solution of 0.5% CMC-Na, and mixed thoroughly, to obtain a 3 mg/ml solution.
Grouping: Comparative Example 1 group, Positive control group, Example group, Model group. Six KM mice in each group were intragastrically given Comparative Compound 1 (30 mg/kg), the positive control (Gefapixant, purchased, 30 mg/kg), and an Example compound (30 mg/kg), and the model group was given an equal volume of 0.5% CMC-Na solution. 30 min, 60 min, or 120 min after administration, each mouse was placed in a 500 ml beaker, and a cotton ball (weight: 100±5 mg) containing 0.3 ml 50% aqueous ammonia was placed in the beaker. The number of typical coughs by the mouse within 3 min was observed (typical cough: contraction of the abdominal muscle or contraction of the chest, accompanied by wide opening of the mouth and a coughing sound).
• (1) Cough judgment criteria: Cough was judged by contraction of the abdominal muscle or contraction of the chest, accompanied by wide opening of the mouth and a coughing sound. • (2) The number of coughs by the mice within 3 min was recorded with a stop watch, and statistically analyzed with software. The data of each group were statistically expressed in mean±standard deviation, and one-way ANOVA between multiple groups was performed, P<0.05 for statistically significant difference.

[2] = target: T1, human P2X3 receptor (Homo sapiens, UniProt P56373); experiment: In vitro biological activity evaluation, P2X3 antagonist mode FLIPR assay with BZATP agonist
T1 sequence (P56373 1-397): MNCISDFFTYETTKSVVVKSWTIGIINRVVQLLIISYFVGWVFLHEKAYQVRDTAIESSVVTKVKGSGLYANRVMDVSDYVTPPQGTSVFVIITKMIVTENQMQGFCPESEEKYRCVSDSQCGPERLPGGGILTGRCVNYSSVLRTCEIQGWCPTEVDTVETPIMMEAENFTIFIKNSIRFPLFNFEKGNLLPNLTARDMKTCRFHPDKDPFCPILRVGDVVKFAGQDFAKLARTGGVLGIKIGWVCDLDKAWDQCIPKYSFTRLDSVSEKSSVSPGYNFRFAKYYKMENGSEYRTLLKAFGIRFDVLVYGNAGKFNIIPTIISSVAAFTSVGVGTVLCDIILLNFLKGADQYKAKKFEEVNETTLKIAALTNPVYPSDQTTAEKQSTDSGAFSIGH
Source text: A HEK293 cell line stably transfected with human P2X3 receptor was used.

[3] = tested on: sense of taste of rats; experiment: Taste disorder test (quinine water / tap water two-bottle drinking); type: in vivo, SD rats; conditions: 10 mg/kg intravenous; for effect on the sense of taste: quinine water/tap water ratio vs solvent group, in words; for Quinine water/tap water (%): SD rats, drinking 0 to 15 min after administration, 0.3 mM quinine
Experimental: Preparation of 0.3 mM quinine solution: 119.20 mg quinine hydrochloride was weighed and dissolved in 1,000 ml tap water, and mixed well.
Preparation of test sample solution: 40 mg of the test sample was weighed and added to an appropriate amount of DMSO and dissolved, then a solution of solubilizer HS-15 was added thereto and mixed well, and 16 ml saline was added, to obtain a solution of 2.5 mg/ml.
Animals and grouping: male SD rats each about 160 to 180 g, 10 rats per group, with similar average weight in each group, fed in separate cages.
Drinking habit training: the animals in each group were given normal drinking water for 30 minutes at 8:30 am and 4:30 pm every day, with water deprivation for the rest of the day, and trained for 5 days, wherein two bottles of water placed in the left and right positions respectively were renewed every day.
Administration: After water deprivation over the night before the experiment, on the next morning 4 mL/kg (10 mg/kg) of the test sample was injected intravenously in the tail vein of the rats in the test group, and 4 mL/kg (10 mg/kg) of 0.5% HS-15 was injected intravenously in the model group.
• (1) Drinking water measurement: after injection, the animals were put back to their original cages, and the measurement time of each group was in the window covering the Tmax of the drugs (the measurement time was from 0 min to 15 min after administration); in each cage a bottle of normal drinking water and a bottle of drinking water containing 0.3 mM quinine hydrochloride (Quinie) were placed, and the left and right positions of the two bottles in all cages were the same. The animals were allowed to drink freely for 15 min, and the volume of water consumed from the two bottles was measured separately, accurate to 0.1 ml. • (2) Statistical analysis of data: the volume of the consumed quinine bitter water and the volume of the consumed tap water were measured, the percentage of quinine water relative to tap water was calculated, and ANOVA was used to check whether there was a significant difference between the groups.

[4] = tested on: refractory or unexplained chronic cough in adult patients; conditions: cited from earlier work

Compound	duration of cough-relieving action compared to Comparative Compound 1 ([1]; in words)	Number of coughs [1]	Number of coughs 60 min [1]	Number of coughs 120 min [1]	pIC50 [2]	effect on the sense of taste [3]	Quinine water/tap water (%) [3]	cough relieving effect 120 min after administration ([1]; vs model group, in words)	primary endpoint ([4]; 15 mg twice daily)	24-hour cough frequency ([4]; 45 mg twice daily, Week 12 (COUGH-1) and Week 24 (COUGH-2), compared with placebo)	discontinuation due to adverse events ([4]; 45-mg group)	taste-related adverse events ([4]; 45-mg group)
CS(=O)(=O)NC(=O)C1(Cn2c(=O)nc(Nc3ccc(Oc4ccccn4)cc3)n(Cc3ccc(Cl)cc3)c2=O)CC1 [Example 12]	significantly prolonged	19.39**	20.17**	24.14**^Δ	> 8.00	almost no effect	39.39%^Δ					
CNS(=O)(=O)NC(=O)[C@@H](C)Cn1c(=O)nc(Nc2ccc(Oc3ccc(Cl)cn3)cc2)n(Cc2ccc(Cl)cc2)c1=O [Example 10]	significantly prolonged	20.27**	20.33**	24.13**^Δ	> 8.00							
CC(C)NS(=O)(=O)NC(=O)[C@@H](C)Cn1c(=O)nc(Nc2ccc(Oc3ccccn3)cc2)n(Cc2ccc(Cl)cc2)c1=O [Example 6]	significantly prolonged	20.60**	17.63**	28.78*^Δ	> 8.00	almost no effect	41.54%^Δ					
C[C@@H](Cn1c(=O)nc(Nc2ccc(Oc3ccccn3)cc2)n(Cc2ccc(Cl)cc2)c1=O)C(=O)NS(=O)(=O)C(F)(F)F [Example 4]		28.61*			7.00 to 8.00							
CC(C)(Cn1c(=O)nc(Nc2ccc(Oc3ccccn3)cc2)n(Cc2ccc(Cl)cc2)c1=O)C(=O)NS(C)(=O)=O [Example 11]	significantly prolonged	17.62**	16.68**	18.90**^Δ	> 8.00	almost no effect	37.12%^Δ					
C[C@@H](Cn1c(=O)nc(Nc2ccc(Oc3ccc(OC(F)F)cn3)cc2)n(Cc2ccc(Cl)cc2)c1=O)C(=O)NS(=O)(=O)c1ccc(F)cc1 [Example 8, (S)-3-(3-(4-chlorobenzyl)-4-(4-(5-(5-(difluoromethoxy)pyridin-2-yl)oxyphenyl)amino)-2,6-dioxo-3,6-dihydro-1,3,5-triazin-1(2H)-yl)-N-(4-(4-fluorophenyl)sulfonyl)-2-methylpropionamide]		29.83*			7.00 to 8.00							
C[C@@H](Cn1c(=O)nc(Nc2ccc(Oc3ccccn3)cc2)n(Cc2ccc(Cl)cc2)c1=O)C(=O)NS(=O)(=O)N(C)C [Example 3]	significantly prolonged	15.34**	16.98**	18.56**^Δ	> 8.00	almost no effect	38.11%^Δ					
C[C@@H](Cn1c(=O)nc(Nc2ccc(Oc3ccccn3)cc2)n(Cc2ccc(Cl)cc2)c1=O)C(=O)NS(=O)(=O)N1CCCC1 [Example 5]	significantly prolonged	12.85**	16.25**	23.11**^Δ	> 8.00							
C[C@@H](Cn1c(=O)nc(Nc2ccc(Oc3ccccn3)cc2)n(Cc2ccc(Cl)cc2)c1=O)C(=O)NS(C)(=O)=O [Example 1]	significantly prolonged	13.33**	18.37**	17.28**^Δ	> 8.00	almost no effect	37.01%^Δ					
C[C@@H](Cn1c(=O)nc(Nc2ccc(Oc3ccccn3)cc2)n(Cc2ccc(Cl)cc2)c1=O)C(=O)O [Comparative Example 1, reference compound]		15.61**	22.29**	45.21	> 8.00			did not have an obvious cough relieving effect				
C[C@@H](Cn1c(=O)nc(Nc2ccc(Oc3ccccn3)cc2)n(Cc2ccc(Cl)cc2)c1=O)C(=O)NS(=O)(=O)c1ccccc1 [Example 7]		28.66*			7.00 to 8.00							
Cc1ccc(S(=O)(=O)NC(=O)[C@@H](C)Cn2c(=O)nc(Nc3ccc(Oc4ccccn4)cc3)n(Cc3ccc(Cl)cc3)c2=O)cc1 [Example 9]		25.11*			7.00 to 8.00							
CCS(=O)(=O)NC(=O)[C@@H](C)Cn1c(=O)nc(Nc2ccc(Oc3ccccn3)cc2)n(Cc2ccc(Cl)cc2)c1=O [Example 2]		17.12**			> 8.00							
COc1cc(C(C)C)c(Oc2cnc(N)nc2N)cc1S(N)(=O)=O [Positive control, Gefapixant]		20.51**					79.01%**		did not meet the primary endpoint	statistically significant reduction	higher frequency	higher incidence
